How the values were obtained:
[1] = Pharmacokinetic evaluation in CD-1 mouse (oral); format: in vivo; details: 3.1 mg/kg
Experimental: Assay purpose: To assay the pharmacokinetics of the compound in CD-1 mouse (oral)
Pharmacokinetic study of oral and intravenously injected compound 4 and reference example 1 (compound 005-1) in CD-1 mouse.
(§1) Compound 4 and reference example 1 (compound 005-1) were mixed with the solvent (10% NMP/60% PEG400/30% H2O). The mixture was vortexed and sonicated to prepare a clarified solution of 0.6 mg/mL. 7- to 10-week old CD-1 male mice were selected, and the candidate compound solution was administered […] at a dose of 3.1 mg/kg.
(§2) Whole blood was collected for a certain period of time to prepare the plasma. Drug concentration was analyzed by LC-MS/MS, and pharmacokinetic parameters were calculated by Phoenix WinNonlin software (Pharsight, USA).

[2] = Plasma protein binding (PPB) assay, H; format: in vitro ADME; details: human, dialysis 4 hr 37° C.
Experimental: (§3) Assay procedure: 995 μL of blank plasma of various genera were weighed, and 5 μL of assay compound working solution (400 μM) or warfarin working solution (400 μM) was added so that the final concentrations of the assay compound and warfarin in plasma sample were each 2 μM. The samples were mixed thoroughly. The final concentration of DMSO (the organic phase) was 0.5%. 50 μL of the plasma samples of the assay compound and warfarin were pipetted to a sample receiving plate (in triplicate), and the corresponding volume of corresponding blank plasma or buffer was added immediately, so that the final volume in each sample well was 100 μL, wherein the volume ratio of plasma:dialysis buffer was 1:1. 500 μL of stop solution was then added to these samples. These samples were used as T0 samples for determination of recovery and stability. […] All samples were subjected to protein precipitation, and then analyzed by LC/MS/MS. Bound rate and recovery rate of protein were calculated using the following formulae: % Unbound=100*F/T, % Bound=100−% Unbound, % Recovery=100*(F+T)/T0 (wherein F is the peak area ratio of the compound in the dialysate after 4 h of dialysis; T is the peak area ratio of the compound in the plasma after 4 h of dialysis; To is the peak area ratio of the compound in the plasma sample at time zero).

[3] = test system: xenograft tumor of human diffuse large B lymphoma TMD8; test: Xenograft tumor model of TMD8 in SCID mouse; format: in vivo
Experimental: Xenograft tumor model of TMD8 in SCID mouse:
Assay method: A tumor model of subcutaneously transplanted human diffuse large B lymphoma in mice was established. Tumor cells in logarithmic growth phase were collected, counted, and then resuspended in RPMI1640. The cell suspension was adjusted to a concentration of 4×10^7/mL, and mixed well with Matrigel (1:1). Tumor cells were inoculated subcutaneously on the right back of the mouse with a 1 mL syringe ([…]), 4×10^6 cells/mouse. When the animal tumor reached about 100-300 mm^3, the tumor-bearing mice were randomly divided into 6 groups according to the size of the tumor volume, with 6 mice in each group. On the day of the assay, the animals were administered the corresponding drugs according to the corresponding groups. The first group G1 was set as a negative control group, which was administered 10% NMP/60% PEG400/30% H2O by gavage alone. The second group G2 was set as a positive control group, which was given reference example 1 (compound 005-1) at a dose of 30 mg/kg. The third group G3 was given compound 4 at a dose of 30 mg/kg, once a day, for a total of 15 days.
During the assay, animal weight and tumor size were measured 3 times a week, and clinical symptoms of animals were observed and recorded every day. Each dosing was referenced to the most recent animal weight.
For tumor measurement, length (a) and width (b) were measured with digital vernier calipers, and the calculation formula for tumor volume (TV) was: TV=a×b^2/2.

[4] = Plasma protein binding (PPB) assay, C; format: in vitro ADME; details: cynomolgus monkey, dialysis 4 hr 37° C.
Experimental: as §3

[5] = Pharmacokinetic evaluation in SD rat (intravenous); format: in vivo; details: about 0.5 mg/kg
Experimental: Assay purpose: To assay the pharmacokinetics of the compound in SD rat (intravenous)
Pharmacokinetic study of oral and intravenously injected compound 4 and reference example 1 in SD rat.
Compound 4 and reference example 1 were mixed with the solvent (10% NMP/60% PEG400/30% H2O). The mixture was vortexed and sonicated to prepare a clarified solution of 0.5 mg/mL. […] Whole blood was collected for a certain period of time to prepare the plasma. Drug concentration was analyzed by LC-MS/MS, and pharmacokinetic parameters were calculated by Phoenix WinNonlin software (Pharsight, USA).

[6] = Pharmacokinetic evaluation in CD-1 mouse (intravenous); format: in vivo; details: male, plasma, IV 0.21 mg/kg
Experimental: Assay purpose: To assay the pharmacokinetics of the compound in CD-1 mouse (intravenous)
Pharmacokinetic study of oral and intravenously injected compound 4 and reference example 1 (compound 005-1) in CD-1 mouse
as §1, with “1” for “1 (compound 005-1)”, “0.1” for “0.6”, “0.21” for “3.1”
as §2

[7] = Plasma protein binding (PPB) assay, D; format: in vitro ADME; details: dog, dialysis 4 hr 37° C.
Experimental: as §3

[8] = Pharmacokinetic evaluation in SD rat (oral); format: in vivo; details: about 2 mg/kg
[9] = AUCu = AUC0-inf * Unbound PPB (Mouse)
[10] = TMD8 xenograft in SCID mouse, 30 mg/kg PO, QD × 15, 14th day
[11] = AUCu = AUC0-inf * Unbound PPB (in vivo assay of PPB in rat)

AUCu [1, 9]: 0.133 µM·h
AUC(0-inf) ([1]; male, plasma): 33.2 µM·h
Cmax ([1]; male, plasma): 2980 nM
bioavailability ([1]; male, plasma): 71.7%
half-life ([1]; male, plasma): 3.73 h
fraction unbound at 4 h, 2 μM [2]: 0.004
fraction unbound at 4 h, 2 μM [4]: 0.001
AUCu [5, 11]: 0.0034 µM·h
AUC(0-inf) ([5]; male, plasma): 1.7 µM·h
C0 ([5]; male, plasma): 852 nM
Vd ([5]; male, plasma): 1.42 L/kg
clearance ([5]; male, plasma): 9.8 mL/min/kg
half-life ([5]; male, plasma): 1.82 h
AUC(0-inf) [6]: 3.11 µM·h
C0 [6]: 562 nM
Vd [6]: 0.85 L/kg
clearance [6]: 2.12 mL/min/kg
half-life [6]: 4.65 h
AUC [6, 9]: 0.0124 µM·h
fraction unbound at 4 h, 2 μM [7]: 0.001
AUCu [8, 11]: 0.0078 µM·h
AUC(0-inf) ([8]; male, plasma): 3.89 µM·h
Cmax ([8]; male, plasma): 587 nM
bioavailability ([8]; male, plasma): 57.3%
half-life ([8]; male, plasma): 2.33 h
Structure (SMILES): CO[C@@H]1C[C@@H](CO)OC[C@@H]1Nc1ncnc2[nH]cc(C(=O)c3ccc(Oc4ccccc4)cc3Cl)c12 [Compound 4]
inhibitory effect on xenograft tumor of human diffuse large B lymphoma TMD8 in mouse (in words) ([3]; 30 mg/kg once a day): a certain inhibitory effect
relative tumor proliferation rate T/C ([3]; 5th day, 30 mg/kg once a day): 66.33%
relative tumor proliferation rate ([3]; 14th day, 30 mg/kg once a day): 21.53%
tumor volume inhibition rate TGI (%) ([3]; 14th day, 30 mg/kg once a day): 79.04%
Tumor volume inhibition rate TGI [3, 10]: 79.04%
relative tumor proliferation rate T/C [3, 10]: 21.53%
